Source: ChEMBL document CHEMBL2034890, “Polyhydroxylated macrolides from Seimatosporium discosioides and their effects on the activation of peroxisome proliferator-activated receptor gamma” (J Nat Prod, 2012)
The source made the active and inactive calls. The rule behind the calls is not given here.

What was measured:
Type in all cases: functional, cell-based
[1] = molecular target: T1, Peroxisome proliferator-activated receptor delta (Homo sapiens) (UniProt Q03181); experiment: Agonist activity at human recombinant PPARbeta expressed in CHO cells cotransfected with pGL3-PPRE3-TK-luc reporter assessed as beta-galactosidase activity at 20 uM after 24 hrs by luciferase based transactivation assay
T1 sequence (whole entry): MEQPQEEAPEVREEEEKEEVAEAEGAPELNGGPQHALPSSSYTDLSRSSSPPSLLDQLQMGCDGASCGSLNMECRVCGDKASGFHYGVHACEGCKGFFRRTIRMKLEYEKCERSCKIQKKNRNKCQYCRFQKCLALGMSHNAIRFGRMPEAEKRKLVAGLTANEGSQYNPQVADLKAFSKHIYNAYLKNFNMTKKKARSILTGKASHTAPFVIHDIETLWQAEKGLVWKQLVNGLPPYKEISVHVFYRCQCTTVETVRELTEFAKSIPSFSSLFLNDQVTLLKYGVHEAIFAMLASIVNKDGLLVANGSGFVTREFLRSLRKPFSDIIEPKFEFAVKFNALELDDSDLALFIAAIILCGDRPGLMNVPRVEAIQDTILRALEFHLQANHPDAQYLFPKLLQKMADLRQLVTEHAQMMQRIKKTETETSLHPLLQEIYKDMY

[2] = molecular target: T2, Peroxisome proliferator-activated receptor alpha (Homo sapiens) (UniProt Q07869); experiment: Agonist activity at human recombinant PPARalpha expressed in CHO cells cotransfected with pGL3-PPRE3-TK-luc reporter assessed as beta-galactosidase activity at 20 uM after 24 hrs by luciferase based transactivation assay
T2 sequence (whole entry): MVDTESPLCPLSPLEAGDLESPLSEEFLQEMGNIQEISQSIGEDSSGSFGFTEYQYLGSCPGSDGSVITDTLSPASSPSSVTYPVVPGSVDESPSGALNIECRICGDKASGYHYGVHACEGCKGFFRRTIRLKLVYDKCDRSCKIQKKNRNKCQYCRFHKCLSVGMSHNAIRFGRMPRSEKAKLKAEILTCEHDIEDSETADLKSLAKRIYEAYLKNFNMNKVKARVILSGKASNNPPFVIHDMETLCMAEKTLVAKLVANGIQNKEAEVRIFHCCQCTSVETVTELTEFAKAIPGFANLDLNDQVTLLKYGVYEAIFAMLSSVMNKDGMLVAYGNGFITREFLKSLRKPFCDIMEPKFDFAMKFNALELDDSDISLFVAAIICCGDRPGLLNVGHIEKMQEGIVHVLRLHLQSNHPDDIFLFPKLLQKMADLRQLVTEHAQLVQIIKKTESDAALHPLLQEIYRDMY

[3] = molecular target: T3, Peroxisome proliferator-activated receptor gamma (Homo sapiens) (UniProt P37231); experiment: (§1) Agonist activity at human recombinant PPARgamma expressed in CHO cells cotransfected with pGL3-PPRE3-TK-luc reporter assessed as beta-galactosidase activity at after 24 hrs by luciferase based transactivation assay
T3 sequence (whole entry): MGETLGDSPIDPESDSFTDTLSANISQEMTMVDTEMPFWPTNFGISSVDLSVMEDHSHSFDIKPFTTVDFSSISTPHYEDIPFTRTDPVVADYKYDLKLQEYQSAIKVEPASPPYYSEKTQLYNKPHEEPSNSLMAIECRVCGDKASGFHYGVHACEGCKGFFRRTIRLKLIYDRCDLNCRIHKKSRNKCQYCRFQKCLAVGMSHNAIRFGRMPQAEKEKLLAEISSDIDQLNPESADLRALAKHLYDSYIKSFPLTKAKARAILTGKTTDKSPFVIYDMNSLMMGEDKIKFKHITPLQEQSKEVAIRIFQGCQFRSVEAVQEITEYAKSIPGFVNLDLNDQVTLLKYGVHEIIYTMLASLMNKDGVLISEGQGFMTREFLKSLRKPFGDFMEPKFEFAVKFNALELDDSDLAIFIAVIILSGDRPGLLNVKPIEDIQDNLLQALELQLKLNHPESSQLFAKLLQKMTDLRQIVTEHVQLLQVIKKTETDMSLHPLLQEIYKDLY

[4] = molecular target: T3, Peroxisome proliferator-activated receptor gamma (Homo sapiens); experiment: Agonist activity at PPARgamma in human HepG2 cells assessed as downregulation of phosphoenolpyruvate carboxykinase mRNA at 0.5 to 12.5 uM by RT-PCR analysis
[5] = molecular target: T3, Peroxisome proliferator-activated receptor gamma (Homo sapiens); experiment: Agonist activity at PPARgamma in human HepG2 cells assessed as up-regulation of PPARgamma mRNA at 0.5 to 12.5 uM by RT-PCR analysis relative to control
[6] = molecular target: T3, Peroxisome proliferator-activated receptor gamma (Homo sapiens); experiment: Agonist activity at PPARgamma in human HepG2 cells assessed as downregulation of glucose-6-phosphatase mRNA at 0.5 to 12.5 uM by RT-PCR analysis
[7] = molecular target: T3, Peroxisome proliferator-activated receptor gamma (Homo sapiens); experiment: Agonist activity at PPARgamma in human HepG2 cells assessed as up-regulation of PPARgamma mRNA expression by RT-PCR analysis
[8] = molecular target: T4, Peroxisome proliferator-activated receptor gamma (Homo sapiens, UniProt P37231); experiment: as §1
T4 sequence (P37231 whole entry): T3 sequence (whole entry)

[9] = molecular target: T3, Peroxisome proliferator-activated receptor gamma (Homo sapiens); experiment: Agonist activity at PPARgamma in human HepG2 cells assessed as change in stearoyl CoA desaturase 1 mRNA at 0.5 to 12.5 uM by RT-PCR analysis

## COc1cc(O)c2c(c1)C(=O)c1cocc1C2=O
[1]
  Activity: inactive
[2]
  Activity: inactive
[3]
  Activity: inactive

## COc1cc(O)c2c(c1)[C@@H](O)[C@@]1(O)COC[C@H]1C2=O
[1]
  Activity: inactive
[2]
  Activity: inactive
[3]
  Activity: inactive

## COc1cc(O)c2c(c1)[C@@H](O)[C@@]13CO[C@@H](O)[C@@]1(O3)C2=O
[1]
  Activity: inactive
[2]
  Activity: inactive
[3]
  Activity: inactive

## CCCCCCCCC[C@H]1C[C@@H](O)[C@H](O)/C=C/[C@H](O)CC(=O)O1 [SEIMATOPOLIDE A]
[4]
  Activity: Active
[1]
  Activity: inactive
[2]
  Activity: inactive
[5]
  fold change (FC): 2
[6]
  Activity: Active
[7]
  Activity: Dose-dependent effect
[8]
  EC50: 1.15 µM
[9]
  Activity: inactive

## CCCCCCCCC[C@H]1CC[C@H](O)/C=C/[C@H](O)CC(=O)O1 [SEIMATOPOLIDE B]
[1]
  Activity: inactive
[2]
  Activity: inactive
[8]
  EC50: 11.1 µM
